Measured values from article PMC6238539, “Discovery of a cofactor-independent inhibitor of Mycobacterium tuberculosis InhA” (Life Science Alliance, 2018).
≈ marks a conversion by molar mass, not a printed value. Where “and” joins values, the source holds several entries; their conditions need not be identical. Identical values can stand only once. Like-named read-outs stand apart in the source and are kept apart here.

How the values were obtained:
M. tuberculosis H37Rv = type: cell-based, Mycobacterium tuberculosis
[1] = test system: M. tuberculosis drug-resistant clinical isolates; assay: microbe, parasite or virus in culture; type: cell-based; conditions: Mycobacterium tuberculosis
[2] = test system: M. tuberculosis inhA promoter and coding sequence mutants; type: cell-based, Mycobacterium tuberculosis; conditions: read-out: Liquid IC90
M. tuberculosis = conditions: cited from earlier work
[3] = test system: M. tuberculosis inhA promoter and coding sequence mutants; conditions: cited from earlier work
[4] = test system: M. tuberculosis H37Rv-resistant mutants; type: cell-based, Mycobacterium tuberculosis; conditions: read-out: Liquid media IC90
[5] = strains of Table 3, ref McNeil et al, 2017

## N#Cc1ccc(Oc2ccc3c(c2)COB3O)c(/C=N/O)c1 [AN3438]
M. tuberculosis H37Rv
  frequency of resistance: 6.5 × 10^−7

## CCS(=O)(=O)N1N=Cc2ccc(Oc3ccc(C(F)(F)F)cc3/C=N/O)cc2B1O [AN12855]
[1]; H37RV, read-out: MIC
  MIC: 0.13 µg/mL (≈ 0.295 µM)
[1]; read-out: MIC
  MIC: 0.25 µg/mL (≈ 0.567 µM)
[2]
  IC90: 60 nM
M. tuberculosis H37Rv
  frequency of resistance: 6.5 × 10^−7

## NNC(=O)c1ccncc1 [INH, isoniazid]
M. tuberculosis
  frequency of resistance: 1 × 10^−5
[1]; H37RV, read-out: MIC
  MIC: < 0.06 µg/mL
[3]; strain H37Rv (WT), ref McNeil et al (2017), read-out: Liquid IC90
  IC90: 100 nM
[3]; strain LP-0532543-RM1, InhA S94A, ref McNeil et al (2017)
  Liquid IC90 (fold shift versus WT): 2×
[3]; strain LP-0532543-RM2, InhA D148E, ref McNeil et al (2017)
  Liquid IC90 (fold shift versus WT): 1×
[3]; strain LP-0532543-RM3, InhA A206E, ref McNeil et al (2017)
  Liquid IC90 (fold shift versus WT): 1×
[3]; strain LP-0532543-RM4, InhA M161L, ref McNeil et al (2017)
  Liquid IC90 (fold shift versus WT): 1×
[3]; strain LP-0532543-RM6, InhA M103T, ref McNeil et al (2017)
  Liquid IC90 (fold shift versus WT): 1×
[3]; strain LP-0532543-RM7, InhA G205A, ref McNeil et al (2017)
  Liquid IC90 (fold shift versus WT): 1×
[3]; strain LP-0532543-RM9, InhA I202F, ref McNeil et al (2017)
  Liquid IC90 (fold shift versus WT): 1×
[3]; strain LP-0532543-RM11, InhA G205S, ref McNeil et al (2017)
  Liquid IC90 (fold shift versus WT): 1×
[3]; strain LP-0532543-RM13, InhA F41L, ref McNeil et al (2017)
  Liquid IC90 (fold shift versus WT): 1×
[3]; strain LP-0532543-RM14, InhA G212D, ref McNeil et al (2017)
  Liquid IC90 (fold shift versus WT): 1×
[3]; strain LP-0532543-RM16, InhA I215S, ref McNeil et al (2017)
  Liquid IC90 (fold shift versus WT): 1×
[3]; strain LP-0532543-RM18, InhA S19W, ref McNeil et al (2017)
  Liquid IC90 (fold shift versus WT): 1×
[3]; strain LP-0532543-RM19, InhA I47L, ref McNeil et al (2017)
  Liquid IC90 (fold shift versus WT): 1×
[3]; strain LP-0532543-RM28, InhA I21M, ref McNeil et al (2017)
  Liquid IC90 (fold shift versus WT): 1×
[3]; strain LP-0532543-RM30, fabG1inhA promoter c-15t, ref McNeil et al (2017)
  Liquid IC90 (fold shift versus WT): 5×
[3]; strain LP-0532543-RM34, InhA I21V, ref McNeil et al (2017)
  Liquid IC90 (fold shift versus WT): 2×
[3]; strain LP-0532543-RM37, InhA L269R, ref McNeil et al (2017)
  Liquid IC90 (fold shift versus WT): 1×
[3]; strain LP-0532543-RM41, InhA R195G, ref McNeil et al (2017)
  Liquid IC90 (fold shift versus WT): 2×
[3]; strain LP-0532543-RM301, promoter c-15t, InhA N159K, ref McNeil et al (2017)
  Liquid IC90 (fold shift versus WT): 3×
[3]; strain LP-0532543-RM304, promoter c-15t, InhA T162M, ref McNeil et al (2017)
  Liquid IC90 (fold shift versus WT): 4×
[3]; strain LP-0532543-RM311, promoter c-15t, InhA M161V, ref McNeil et al (2017)
  Liquid IC90 (fold shift versus WT): 5×
[3]; strain LP-0532543-RM313, promoter c-15t, InhA G205D, ref McNeil et al (2017)
  Liquid IC90 (fold shift versus WT): 2×
[3]; strain LP-0532543-RM314, promoter c-15t, InhA I47M, ref McNeil et al (2017)
  Liquid IC90 (fold shift versus WT): 5×
[3]; strain LP-0532543-RM318, promoter c-15t, InhA M199L, ref McNeil et al (2017)
  Liquid IC90 (fold shift versus WT): 4×
[3]; strain LP-0532543-RM320, promoter c-15t, InhA G208D, ref McNeil et al (2017)
  Liquid IC90 (fold shift versus WT): 4×
[3]; strain LP-0571426-RM24, InhA I194T, ref McNeil et al (2017)
  Liquid IC90 (fold shift versus WT): 3×
[4]
  IC90: 300 nM and 100 nM and 400 nM

## CC1(C)CCC(Cc2cc(O)c(-c3ccccc3)c(=O)[nH]2)CC1 [NITD-916]
M. tuberculosis; ref Manjunatha et al, 2015, Martínez-Hoyos et al, 2016
  frequency of resistance: 1 × 10^−8
[3]; [5]
  resistance of inhA / fabG1inhA promoter mutant strains: resistant

## CO[C@H]1/C=C/O[C@@]2(C)Oc3c(C)c(O)c4c(O)c(c(/C=N/N5CCN(C)CC5)c(O)c4c3C2=O)NC(=O)/C(C)=C\C=C\[C@H](C)[C@H](O)[C@@H](C)[C@@H](O)[C@@H](C)[C@H](OC(C)=O)[C@@H]1C [RIF, rifampicin]
[1]
  MIC: > 16 µg/mL
[1]; H37RV
  MIC: < 0.06 µg/mL

## Oc1cc(Cl)ccc1Oc1ccc(Cl)cc1Cl [triclosan]
[3]; [5]
  cross-resistance of the mutants: None of the mutants demonstrated cross-resistance
